Source: ChEMBL document CHEMBL2021896, “A novel pyrimidine derivatives with aryl urea, thiourea and sulfonamide moieties: synthesis, anti-inflammatory and antimicrobial evaluation” (2012)
≈ marks a conversion by molar mass, not a printed value. Calls of active or inactive are those of the source. The calls are words filed in the database; no cut-off is given here.

Columns and labels:
Aspergillus niger [1] = assay: Antifungal activity against Aspergillus niger by agar well diffusion method; assay type: functional
Fusarium solani = assay: Antifungal activity against Fusarium solani by agar well diffusion method; assay type: functional
Staphylococcus aureus [2] = assay: Antibacterial activity against Staphylococcus aureus up to 200 ug/ml by agar well diffusion method; assay type: functional, organism-based
Escherichia coli [3] = assay: Antibacterial activity against Escherichia coli up to 200 ug/ml by agar well diffusion method; assay type: functional, organism-based
THP-1 [4] = assay: Antiinflammatory activity in human PMA-stimulated THP1 cells assessed as inhibition of LPS-induced IL-6 production at 10 uM treated 30 mins before LPS challenge measured after 24 hrs by ELISA; assay type: functional
Bacillus subtilis [5] = assay: Antibacterial activity against Bacillus subtilis up to 200 ug/ml by agar well diffusion method; assay type: functional, organism-based
THP-1 [6] = assay: Antiinflammatory activity in human PMA-stimulated THP1 cells assessed as inhibition of LPS-induced TNFalpha production at 10 uM treated 30 mins before LPS challenge measured after 24 hrs by ELISA; assay type: functional
Aspergillus flavus [7] = assay: Antifungal activity against Aspergillus flavus by agar well diffusion method; assay type: functional
Candida albicans = assay: Antifungal activity against Candida albicans by agar well diffusion method; assay type: functional
Salmonella typhimurium [8] = assay: Antibacterial activity against Salmonella typhimurium up to 200 ug/ml by agar well diffusion method; assay type: functional, organism-based; settings: Salmonella enterica subsp. enterica serovar Typhimurium
Staphylococcus aureus [9] = assay: Antibacterial activity against Staphylococcus aureus by agar well diffusion method; assay type: functional
Salmonella typhimurium [10] = assay: Antibacterial activity against Salmonella typhimurium by agar well diffusion method; assay type: functional, Salmonella enterica subsp. enterica serovar Typhimurium; settings: Salmonella enterica
Escherichia coli [11] = assay: Antibacterial activity against Escherichia coli by agar well diffusion method; assay type: functional
Bacillus subtilis [12] = assay: Antibacterial activity against Bacillus subtilis by agar well diffusion method; assay type: functional
Aspergillus niger [13] = assay: Antifungal activity against Aspergillus niger up to 200 ug/ml by agar well diffusion method; assay type: functional, organism-based
Aspergillus flavus [14] = assay: Antifungal activity against Aspergillus flavus up to 200 ug/ml by agar well diffusion method; assay type: functional, organism-based

SMILES | MIC (Aspergillus niger [1]) [µg/mL] | MIC (Fusarium solani) [µg/mL] | Activity (Staphylococcus aureus [2]) | Activity (Escherichia coli [3]) | inhibition at 10 µM (THP-1 [4]) [%] | Activity (Bacillus subtilis [5]) | inhibition at 10 µM (THP-1 [6]) [%] | MIC (Aspergillus flavus [7]) [µg/mL] | MIC (Candida albicans) [µg/mL] | Activity (Salmonella typhimurium [8]) | MIC (Staphylococcus aureus [9]) [µg/mL] | MIC (Salmonella typhimurium [10]) [µg/mL] | MIC (Escherichia coli [11]) [µg/mL] | MIC (Bacillus subtilis [12]) [µg/mL] | Activity (Aspergillus niger [13]) | Activity (Aspergillus flavus [14])
FC(F)(F)c1cccc(Nc2cc(-c3ccc(NC(=S)Nc4ccccc4C(F)(F)F)cc3)ncn2)c1 | 25 (≈ 46.9 µM) | 15 (≈ 28.1 µM) | inactive | inactive | 82 | inactive | 68 | 15 (≈ 28.1 µM) | 15 (≈ 28.1 µM) | inactive |  |  |  |  |  | 
COc1ccc(OC)c(S(=O)(=O)Nc2ccc(-c3cc(Nc4cccc(C(F)(F)F)c4)ncn3)cc2)c1 | 15 (≈ 28.3 µM) | 15 (≈ 28.3 µM) |  |  | 26 |  | 8 | 40 (≈ 75.4 µM) | 25 (≈ 47.1 µM) |  | 45 (≈ 84.8 µM) | 35 (≈ 66 µM) | 25 (≈ 47.1 µM) | 30 (≈ 56.5 µM) |  | 
N#Cc1cccc(NC(=S)Nc2ccc(-c3cc(Nc4cccc(C(F)(F)F)c4)ncn3)cc2)c1 | 40 (≈ 81.5 µM) | 20 (≈ 40.8 µM) |  |  | 16 | inactive | 11 | 20 (≈ 40.8 µM) | 20 (≈ 40.8 µM) |  | 90 (≈ 183 µM) | 90 (≈ 183 µM) | 90 (≈ 183 µM) |  |  | 
O=S(=O)(Nc1ccc(-c2cc(Nc3cccc(C(F)(F)F)c3)ncn2)cc1)c1ccccc1OC(F)(F)F | 60 (≈ 108 µM) | 20 (≈ 36.1 µM) |  |  | 0 |  | 0 | 20 (≈ 36.1 µM) | 30 (≈ 54.1 µM) |  | 10 (≈ 18 µM) | 10 (≈ 18 µM) | 20 (≈ 36.1 µM) | 10 (≈ 18 µM) |  | 
FC(F)(F)c1cccc(Nc2cc(-c3ccc(NC(=S)Nc4cc(C(F)(F)F)cc(C(F)(F)F)c4)cc3)ncn2)c1 |  | 75 (≈ 125 µM) |  |  | 0 |  | 0 |  | 90 (≈ 150 µM) |  | 20 (≈ 33.3 µM) | 25 (≈ 41.6 µM) | 25 (≈ 41.6 µM) | 25 (≈ 41.6 µM) | inactive | inactive
CSc1ccc(NC(=O)Nc2ccc(-c3cc(Nc4cccc(C(F)(F)F)c4)ncn3)cc2)cc1 |  | 90 (≈ 182 µM) |  |  | 0 |  | 0 | 90 (≈ 182 µM) | 90 (≈ 182 µM) |  | 75 (≈ 151 µM) | 90 (≈ 182 µM) | 90 (≈ 182 µM) | 90 (≈ 182 µM) | inactive | 
O=S(=O)(Nc1ccc(-c2cc(Nc3cccc(C(F)(F)F)c3)ncn2)cc1)c1ccc(Br)cc1 | 95 (≈ 173 µM) |  |  | inactive | 11 | inactive | 6 | 95 (≈ 173 µM) | 80 (≈ 146 µM) | inactive | 80 (≈ 146 µM) |  |  |  |  | 
Clc1ccc(COC(Cn2ccnc2)c2ccc(Cl)cc2Cl)c(Cl)c1 (configuration not stated) [MICONAZOLE] | 15 (≈ 36 µM) | 15 (≈ 36 µM) |  |  |  |  |  | 20 (≈ 48.1 µM) | 20 (≈ 48.1 µM) |  |  |  |  |  |  | 
COc1ccc(NC(=S)Nc2ccc(-c3cc(Nc4cccc(C(F)(F)F)c4)ncn3)cc2)cc1 |  | 90 (≈ 182 µM) | inactive | inactive | 8 | inactive | 3 | 90 (≈ 182 µM) | 80 (≈ 161 µM) | inactive |  |  |  |  | inactive | 
Cc1ccc(NC(=O)Nc2ccc(-c3cc(Nc4cccc(C(F)(F)F)c4)ncn3)cc2)cc1C | 75 (≈ 157 µM) | 60 (≈ 126 µM) |  | inactive | 27 |  | 16 | 30 (≈ 62.8 µM) | 40 (≈ 83.8 µM) | inactive | 90 (≈ 188 µM) |  |  | 90 (≈ 188 µM) |  | 
O=C(Nc1ccc(-c2cc(Nc3cccc(C(F)(F)F)c3)ncn2)cc1)Nc1cccc(C(F)(F)F)c1 | 35 (≈ 67.6 µM) | 20 (≈ 38.7 µM) |  |  | 40 |  | 28 | 20 (≈ 38.7 µM) | 25 (≈ 48.3 µM) |  | 25 (≈ 48.3 µM) | 80 (≈ 155 µM) | 35 (≈ 67.6 µM) | 40 (≈ 77.3 µM) |  | 
N#Cc1cccc(S(=O)(=O)Nc2ccc(-c3cc(Nc4cccc(C(F)(F)F)c4)ncn3)cc2)c1 | 20 (≈ 40.4 µM) | 20 (≈ 40.4 µM) |  |  | 12 |  | 0 | 35 (≈ 70.6 µM) | 55 (≈ 111 µM) |  | 40 (≈ 80.7 µM) | 45 (≈ 90.8 µM) | 25 (≈ 50.5 µM) | 65 (≈ 131 µM) |  | 
Cc1ccc(F)cc1S(=O)(=O)Nc1ccc(-c2cc(Nc3cccc(C(F)(F)F)c3)ncn2)cc1 |  | 90 (≈ 179 µM) |  |  | 56 |  | 48 | 90 (≈ 179 µM) | 90 (≈ 179 µM) |  | 15 (≈ 29.9 µM) | 15 (≈ 29.9 µM) | 15 (≈ 29.9 µM) | 10 (≈ 19.9 µM) | inactive | 
O=C(O)c1cn(C2CC2)c2cc(N3CCNCC3)c(F)cc2c1=O [CIPROFLOXACIN] |  |  |  |  |  |  |  |  |  |  | 20 (≈ 60.4 µM) | 20 (≈ 60.4 µM) | 15 (≈ 45.3 µM) | 15 (≈ 45.3 µM) |  | 
COc1cccc(NC(=O)Nc2ccc(-c3cc(Nc4cccc(C(F)(F)F)c4)ncn3)cc2)c1 | 35 (≈ 73 µM) | 20 (≈ 41.7 µM) |  |  | 18 |  | 11 | 20 (≈ 41.7 µM) | 55 (≈ 115 µM) |  | 35 (≈ 73 µM) | 30 (≈ 62.6 µM) | 30 (≈ 62.6 µM) | 30 (≈ 62.6 µM) |  | 
Fc1ccccc1NC(=S)Nc1ccc(-c2cc(Nc3cccc(C(F)(F)F)c3)ncn2)cc1 |  | 90 (≈ 186 µM) |  |  | 62 |  | 50 | 90 (≈ 186 µM) | 90 (≈ 186 µM) | inactive | 90 (≈ 186 µM) |  | 90 (≈ 186 µM) | 90 (≈ 186 µM) | inactive | 
